# Experimental data published in article PMC3623729 (Journal of medicinal chemistry, 2013).
# “Also recorded” adds a separate entry of the source. Counter-ions that a name gives are not always drawn.
# Target: T1, human RXRα (Homo sapiens, UniProt P19793)
# T1 sequence (P19793 1-462): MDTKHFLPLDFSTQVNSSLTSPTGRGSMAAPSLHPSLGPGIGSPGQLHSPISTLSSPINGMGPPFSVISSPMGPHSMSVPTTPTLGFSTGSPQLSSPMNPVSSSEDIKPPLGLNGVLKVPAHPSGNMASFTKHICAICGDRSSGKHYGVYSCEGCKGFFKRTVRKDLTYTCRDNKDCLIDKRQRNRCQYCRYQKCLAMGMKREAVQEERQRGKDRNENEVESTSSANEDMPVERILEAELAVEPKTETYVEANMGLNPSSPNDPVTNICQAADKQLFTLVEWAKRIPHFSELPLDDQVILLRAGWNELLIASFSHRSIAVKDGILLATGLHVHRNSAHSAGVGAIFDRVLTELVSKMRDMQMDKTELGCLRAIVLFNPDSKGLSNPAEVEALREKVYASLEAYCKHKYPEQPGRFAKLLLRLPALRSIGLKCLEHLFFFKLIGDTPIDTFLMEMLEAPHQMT
# Test: RXRE-luciferase reporter gene assay
# Assay type: cell-based
# Conditions: for Max IR: maximum induction ratio observed: compounds tested at variable concentrations
Compound,RXR activity in words (active / inactive),Max IR: maximum induction ratio observed
"Cn1c2c(c3ccc(CC(=O)O)cc3c1=O)C(=O)c1ccccc1-2 [Compound 4, 2-(6-Methyl-5,11-dioxo-6,11-dihydro-5H-indeno[1,2-c]isoquinolin-3-yl)acetic Acid]",inactive,–
"Cn1c2c(c3ccc(/C=C/C#N)cc3c1=O)C(=O)c1ccccc1-2 [Compound 11, (E)-3-(6-Methyl-5,11-dioxo-6,11-dihydro-5H-indeno[1,2-c]isoquinolin-3-yl)acrylonitrile]",inactive,–
"COC(=O)/C=C/c1ccc2c3c(n(C)c(=O)c2c1)-c1ccccc1C3=O [Compound 12, (E)-Methyl 3-(6-Methyl-5,11-dioxo-6,11-dihydro-5H-indeno[1,2-c]isoquinolin-3-yl)acrylate]",inactive,–
"Cn1c2c(c3ccc(/C=C/C(=O)O)cc3c1=O)C(=O)c1ccccc1-2 [Compound 13, (E)-3-(6-Methyl-5,11-dioxo-6,11-dihydro-5H-indeno[1,2-c]isoquinolin-3-yl)acrylic Acid]",inactive,–
"Cn1c2c(c3ccc(CCCC(=O)O)cc3c1=O)C(=O)c1ccccc1-2 [Compound 19, 5-(6-Methyl-5,11-dioxo-6,11-dihydro-5H-indeno[1,2-c]isoquinolin-3-yl)butanoic Acid]",inactive,–
"Cn1c2c(c3ccc(C(=O)O)cc3c1=O)C(=O)c1ccccc1-2 [Compound 30, 6-Methyl-5,11-dioxo-6,11-dihydro-5H-indeno[1,2-c]isoquinoline-3-carboxylic Acid]",inactive,–
"Cn1c2c(c3ccc(C(N)=O)cc3c1=O)C(=O)c1ccccc1-2 [Compound 31, 6-Methyl-5,11-dioxo-6,11-dihydro-5H-indeno[1,2-c]isoquinoline-3-carboxamide]",inactive,–
"Cc1ccc2c3c(n(C)c(=O)c2c1)-c1ccccc1C3=O [Compound 36, 3,6-Dimethyl-5H-indeno[1,2-c]isoquinoline-5,11(6H)-dione]",not active,–
"Cn1c2c(c3ccc(C=O)cc3c1=O)C(=O)c1ccccc1-2 [Compound 37, 6-Methyl-5,11-dioxo-6,11-dihydro-5H-indeno[1,2-c]isoquinoline-3-carbaldehyde]",inactive,–
"Cn1c2c(c3ccc(C#N)cc3c1=O)C(=O)c1ccccc1-2 [Compound 39, 3-Cyano-5,11-dihydro-6-methyl-5,11-dioxoindeno[1,2-c]isoquinoline]",inactive,–
Cn1c2c(c3ccc(NC(=O)C(=O)O)cc3c1=O)C(=O)c1ccccc1-2 [Compound 45],inactive,–
COC(=O)CC(=O)Nc1ccc2c3c(n(CCCN)c(=O)c2c1)-c1ccccc1C3=O [Compound 52],active,–
NCCCn1c2c(c3ccc(NCC(=O)O)cc3c1=O)C(=O)c1ccccc1-2 [Compound 61],active,–
"COC(=O)c1ccc2c3c(n(CCCn4ccnc4)c(=O)c2c1)-c1ccccc1C3=O [Compound 68, Methyl 6-(3-(1H-Imidazol-1-yl)propyl)-5,11-dioxo-6,11-dihydro-5H-indeno[1,2-c]isoquinoline-3-carboxylate Hydrochloride]",inactive; also recorded: lack of activity,–
"COC(=O)c1ccc2c3c(n(CCCN4CCOCC4)c(=O)c2c1)-c1ccccc1C3=O [Compound 69, Methyl 6-(3-Morpholinopropyl)-5,11-dioxo-6,11-dihydro-5H-indeno[1,2-c]isoquinoline-3-carboxylate]",inactive; also recorded: lack of activity,–
"COC(=O)c1ccc2c3c(n(CCCN(C)C)c(=O)c2c1)-c1ccccc1C3=O.Cl [Compound 70, Methyl 6-(3-(Dimethylamino)propyl)-5,11-dioxo-6,11-dihydro-5H-indeno[1,2-c]isoquinoline-3-carboxylate Hydrochloride]",active,–

Compound,RXR activity in words (active / inactive),Max IR: maximum induction ratio observed
"Cl.NCCCn1c2c(c3ccc(C(=O)O)cc3c1=O)C(=O)c1ccccc1-2 [Compound 72, 6-(3-Aminopropyl)-5,11-dioxo-6,11-dihydro-5H-indeno[1,2-c]isoquinoline-3-carboxylic Acid Hydrochloride]",lack of activity,NA (NA: Max IR not determined because IR < 2.)
"COC(=O)c1ccc2c3c(n(CCCN)c(=O)c2c1)-c1ccccc1C3=O.Cl [Compound 73, Methyl 6-(3-Aminopropyl)-5,11-dioxo-6,11-dihydro-5H-indeno[1,2-c]isoquinoline-3-carboxylate Hydrochloride]",–,NA (NA: Max IR not determined because IR < 2.)
"COC(=O)/C=C/c1ccc2c3c(n(CCCN)c(=O)c2c1)-c1ccccc1C3=O.Cl [Compound 87, (E)-Methyl 3-(6-(3-Aminopropyl)-5,11-dioxo-6,11-dihydro-5H-indeno[1,2-c]isoquinolin-3-yl)acrylate Hydrochloride]",lack of activity,NA (NA: Max IR not determined because IR < 2.)
"O=C1c2ccccc2-c2c1c1ccc(Br)cc1c(=O)n2CCCn1ccnc1 [Compound 91, 3-Bromo-6-(3-(1H-imidazol-1-yl)propyl)-5,11-dioxo-6,11-dihydro-5H-indeno[1,2-c]isoquinoline]",inactive,–
"O=C1c2ccccc2-c2c1c1ccc(Br)cc1c(=O)n2CCCN1CCOCC1 [Compound 92, 3-Bromo-6-(3-morpholinopropyl)-5,11-dioxo-6,11-dihydro-5H-indeno[1,2-c]isoquinoline]",inactive,NA (NA: Max IR not determined because IR < 2.)
"CN(C)CCCn1c2c(c3ccc(Br)cc3c1=O)C(=O)c1ccccc1-2 [Compound 93, 3-Bromo-6-(3-(dimethylamino)propyl)-5,11-dioxo-6,11-dihydro-5H-indeno[1,2-c]isoquinoline]",active,–
"O=C1c2ccccc2-c2c1c1ccc(Br)cc1c(=O)n2CCCO [Compound 94, 3-Bromo-5,6-dihydro-6(3-hydroxypropyl)-5,11-dioxo-indeno[1,2-c]isoquinoline]",inactive,–
"CNCCCn1c2c(c3ccc(Br)cc3c1=O)C(=O)c1ccccc1-2 [Compound 95, 3-Bromo-5,6-dihydro-6-(3-N-methylaminopropyl)-5,11-dioxo-indeno[1,2-c]isoquinoline]",active,–
"O=C(O)CCn1c2c(c3ccc(Br)cc3c1=O)C(=O)c1ccccc1-2 [Compound 97, Lithium 6(2-Carboxyethyl)-3-bromo-5,6-dihydro-5,11-dioxo-11H-indeno[1,2-c]isoquinoline]",inactive,NA (NA: Max IR not determined because IR < 2.)
"O=C1c2ccccc2-c2c1c1ccccc1c(=O)n2CCCn1ccnc1 [Compound 102, 5,6-Dihydro-6-(3-imidazolyl-1-propyl)-5,11-dioxo-11H-indeno[1,2-c]isoquinoline]",inactive,NA (NA: Max IR not determined because IR < 2.)
"CN(C)CCCn1c2c(c3ccccc3c1=O)C(=O)c1ccccc1-2 [Compound 103, 5,6-Dihydro-6-(3-(dimethylamino)-1-propyl)-5,11-dioxo-11Hindeno[1,2-c]isoquinoline]",active; also recorded: high activity,–
"C[N+](C)(C)CCCn1c2c(c3ccccc3c1=O)C(=O)c1ccccc1-2.[I-] [Compound 104, 6-(3-(Trimethylammonium)propyl)-5H-indeno[1,2-c]isoquinoline-5,11(6H)-dione Iodide]",inactive,NA (NA: Max IR not determined because IR < 2.)
"CNCCCn1c2c(c3ccccc3c1=O)C(=O)c1ccccc1-2 [Compound 105, 6-(3-(Methylamino)propyl)-5H-indeno[1,2-c]isoquinoline-5,11(6H)-dione]",active; also recorded: high activity,–
"O=C(O)CCn1c2c(c3ccccc3c1=O)C(=O)c1ccccc1-2 [Compound 106, 3-(5,11-Dioxo-5H-indeno[1,2-c]isoquinolin-6(11H)-yl)propanoic Acid]",inactive,NA (NA: Max IR not determined because IR < 2.)
"NC(=O)CCn1c2c(c3ccccc3c1=O)C(=O)c1ccccc1-2 [Compound 107, 3-(5,11-Dioxo-5H-indeno[1,2-c]isoquinolin-6(11H)-yl)propanamide]",inactive,NA (NA: Max IR not determined because IR < 2.)
"COCCCn1c2c(c3ccccc3c1=O)C(=O)c1ccccc1-2 [Compound 108, 6-(3-Methoxypropyl)-5H-indeno[1,2-c]isoquinoline-5,11(6H)-dione]",inactive,–
